The results in this text go back to patent US20100297046A1, “Compositions and Methods Related to Fructosamine-3-Kinase Inhibitors” (DYNAMIS THERAPEUTICS, INC., priority 2006, published 2010).

Molecules are shown by their SMILES. “And” between values parts separate entries of the source, which are not always exact repeats. Equal values may be shown once.

The target in data set [1] is T1, Calf skin collagen Type I (Bos taurus, UniProt P02453+P02465).
T1 construct: Calf skin collagen Type I (1.3 mg; Sigma); purchased Sigma; host or cells: calf skin (tissue-derived)
T1 sequence (P02453 162-1217 limits assumed): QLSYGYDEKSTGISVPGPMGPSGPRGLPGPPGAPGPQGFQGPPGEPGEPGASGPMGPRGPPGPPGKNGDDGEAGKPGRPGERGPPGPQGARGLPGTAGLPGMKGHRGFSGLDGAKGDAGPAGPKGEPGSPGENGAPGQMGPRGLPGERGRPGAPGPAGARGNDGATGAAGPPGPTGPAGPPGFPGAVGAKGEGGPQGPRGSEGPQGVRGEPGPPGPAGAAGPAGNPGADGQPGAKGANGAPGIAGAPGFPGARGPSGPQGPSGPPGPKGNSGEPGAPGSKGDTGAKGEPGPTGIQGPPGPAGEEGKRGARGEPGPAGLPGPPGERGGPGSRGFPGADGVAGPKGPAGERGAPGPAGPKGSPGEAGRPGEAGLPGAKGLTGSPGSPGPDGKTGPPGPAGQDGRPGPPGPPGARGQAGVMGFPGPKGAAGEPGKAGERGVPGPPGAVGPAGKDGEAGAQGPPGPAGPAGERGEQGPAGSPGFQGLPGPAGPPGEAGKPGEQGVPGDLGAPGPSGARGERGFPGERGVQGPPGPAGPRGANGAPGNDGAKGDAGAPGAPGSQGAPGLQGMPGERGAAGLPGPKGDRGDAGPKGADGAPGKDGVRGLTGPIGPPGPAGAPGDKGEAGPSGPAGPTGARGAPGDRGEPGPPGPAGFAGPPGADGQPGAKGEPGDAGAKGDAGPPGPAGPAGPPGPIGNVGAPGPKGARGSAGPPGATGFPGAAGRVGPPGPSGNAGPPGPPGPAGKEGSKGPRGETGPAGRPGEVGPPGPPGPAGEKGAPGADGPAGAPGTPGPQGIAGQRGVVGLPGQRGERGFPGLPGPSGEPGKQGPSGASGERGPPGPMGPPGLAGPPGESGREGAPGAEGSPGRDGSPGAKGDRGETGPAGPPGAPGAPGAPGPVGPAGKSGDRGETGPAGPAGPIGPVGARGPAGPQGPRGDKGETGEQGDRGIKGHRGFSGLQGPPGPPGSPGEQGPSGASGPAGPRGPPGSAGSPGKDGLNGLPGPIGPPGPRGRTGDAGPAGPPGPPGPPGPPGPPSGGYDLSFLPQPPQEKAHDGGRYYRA
T1 sequence (P02465 80-1117 limits assumed): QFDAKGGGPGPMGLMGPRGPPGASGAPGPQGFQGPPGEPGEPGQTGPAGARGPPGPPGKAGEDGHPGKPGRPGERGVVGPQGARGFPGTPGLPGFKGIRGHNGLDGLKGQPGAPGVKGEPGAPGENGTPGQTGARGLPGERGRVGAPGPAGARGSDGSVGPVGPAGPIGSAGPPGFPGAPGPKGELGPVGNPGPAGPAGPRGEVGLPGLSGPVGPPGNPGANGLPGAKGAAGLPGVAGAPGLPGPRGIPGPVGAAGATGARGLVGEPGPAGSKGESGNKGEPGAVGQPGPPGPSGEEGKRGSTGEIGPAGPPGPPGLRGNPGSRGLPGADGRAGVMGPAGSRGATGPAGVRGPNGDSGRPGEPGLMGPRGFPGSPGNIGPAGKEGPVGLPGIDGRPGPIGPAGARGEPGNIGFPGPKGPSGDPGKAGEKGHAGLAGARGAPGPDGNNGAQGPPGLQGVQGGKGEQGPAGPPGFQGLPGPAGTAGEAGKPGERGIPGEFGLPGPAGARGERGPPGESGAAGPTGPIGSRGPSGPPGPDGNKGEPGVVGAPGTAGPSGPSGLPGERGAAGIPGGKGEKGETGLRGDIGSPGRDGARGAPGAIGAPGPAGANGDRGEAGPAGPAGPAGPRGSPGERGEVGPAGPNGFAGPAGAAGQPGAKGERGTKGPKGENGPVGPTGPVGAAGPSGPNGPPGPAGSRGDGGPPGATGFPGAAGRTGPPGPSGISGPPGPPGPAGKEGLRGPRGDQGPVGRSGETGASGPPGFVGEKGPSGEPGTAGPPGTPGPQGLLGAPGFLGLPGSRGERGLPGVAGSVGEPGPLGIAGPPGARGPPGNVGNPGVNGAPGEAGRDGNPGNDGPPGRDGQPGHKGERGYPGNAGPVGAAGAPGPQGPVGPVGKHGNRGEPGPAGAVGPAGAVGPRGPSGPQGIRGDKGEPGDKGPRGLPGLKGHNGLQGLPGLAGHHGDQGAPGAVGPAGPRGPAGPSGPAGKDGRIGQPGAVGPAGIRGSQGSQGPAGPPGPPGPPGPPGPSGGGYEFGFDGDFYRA
In words: Collagen crosslinking by 3DG in vitro (CNBr digestion, SDS-PAGE). Particulars: 37° C., 24 hours. In kind it is biochemical. The protocol:
Collagen type I was treated with 3DG in the presence or absence of arginine. The samples were subjected to cyanogen bromide (CNBr) digestion, electrophoresed on a 16.5% SDS Tris-tricine gel, and then the gels were processed using silver stain techniques to visualize the proteins. Lane 1 contains molecular weight marker standards. Lanes 2 and 5 contain 10 and 20 μl of the collagen mixture following CNBr digestion. Lanes 3 and 6 contain the collagen mixture treated with 3DG and then digested with CNBr, and loaded at 10 and 20 μl, respectively. Lanes 4 and 7 contain the mixture of collagen incubated with 5 mM 3DG and 10 mM arginine and then digested with CNBr, and loaded at 10 and 20 μl, respectively.
Collagen I was incubated in the presence or absence of 3DG in vitro. Calf skin collagen Type I (1.3 mg; Sigma) was incubated in 20 mM Na-phosphate buffer, pH 7.25, either alone, with 5 mM 3DG, or with 5 mM 3DG plus 10 mM arginine, in a total volume of 1 ml at 37° C. for 24 hours and then frozen and lyophilized. The residue was dissolved in 0.5 ml of 70% formic acid and cyanogen bromide was added (20:1, w/w). This solution was incubated at 30° C. for 18 hours. […] The extent of collagen crosslinking was determined by applying equal volumes of sample and analyzing by SDS-PAGE electrophoresis (16.5% Tris-tricine gel), as determined by the effects of 3DG on the migration of collagen.

Data set [2] in a line: Locus of 3-O-methyl sorbitollysine uptake in vivo (recovery from tissues, urine, plasma). Set-up: species or system rat. On the procedure: […] Urine was collected for 3 hours, after which the rats were sacrificed. The tissues to be analyzed were removed and freeze clamped in liquid nitrogen. Perchloric acid extracts of the tissues were used for metabolite analysis. The tissues examined were taken from the brain, heart, muscle, sciatic nerve, spleen, pancreas, liver, and kidney. Plasma was also analyzed.

The test system of data set [3] is skin of STZ-diabetic rats. In words: Skin elasticity measurement (vacuum pull) in STZ-diabetic and normal rats. The conditions noted are these: 50 mg/kg daily subcutaneous, eight weeks. The class given is in vivo, rat. The protocol:
Experiments were performed to determine the effects of DYN 12 on the loss of skin elasticity associated with diabetes. To this end, two groups of STZ-diabetic rats and two groups of normal rats were subjected to treatment with DYN 12 or saline. One group of STZ-diabetic rats (n=9) received daily subcutaneous injections of DYN 12 at 50 mg/kg for eight weeks, as did one group of normal rats (n=6). A group of control diabetic rats (n=10) and a group of normal rats (n=6) received saline instead of DYN 12. One rat was removed from the diabetic DYN 12 group after 2 weeks because its blood glucose readings were inconsistent (too low) with other diabetic rats.
A non-invasive procedure based on CyberDERM, Inc. technology utilizing a skin elasticity measurement device was used to test the effects of DYN 12 treatment on skin elasticity. The procedure provides for non-invasive measurement of skin elasticity based upon the amount of vacuum pull required to displace skin. A suction cup probe is adhered to an area of shaved skin in order to form an airtight seal. Then, a vacuum is applied to the area of the skin inside the suction cup until the skin is displaced past a sensor located inside the probe. Accordingly, the more pressure that is required to displace the skin, the less elastic the skin is.

The test system of another data set is diabetic rats. Briefly: Muscle strength / resistance to pull in alert restrained diabetic rats. The conditions noted are these: diabetic rats treated vs not treated; preliminary data. In kind it is in vivo, rat. The text has this:
The present invention also encompasses methods for prevention of hair loss associated with or mediated by loss of microcirculation and/or loss of neuro-innervation in populations of aging, sclerodermic and/or in diabetic individuals. This is because 3DG is a known precursor to the formation of AGEs which are known to be causally connected to the development of neuropathy. […] This supports the concept that maintenance of nerve conduction and microcirculation that supports nerve innervation is deleteriously affected not only by AGEs, but also 3DG. Similarly, where 3DG would cause blockage of the microcirculation that supports nerve innervation of the hair follicle, the hair follicle will atrophy and die, as is the case in neuropathy. Accordingly, the present invention includes methods for preventing hair loss, where such hair loss is associated with or mediated by the presence of 3DG in the skin proximal to a hair follicle/shaft.
Skin elasticity measurements were also taken on the test subjects as described above, but without sedating the test animals before measurement. FIG. 15 illustrates skin elasticity measurements taken on the hind leg of the test subjects while the subjects were alert and being restrained by a technician.
In these experiments, the animals were fiercely fighting restraint and the results are different.

In the next data set the test system is 3DG. Briefly: Plasma 3DG levels in diabetic and non-diabetic rats treated with 3-O-methyl sorbitollysine. Particulars: for plasma 3DG level: 50 mg/kg body weight injections, within one week. In kind it is in vivo, rat. The protocol: A cohort of twelve diabetic rats was divided into two groups of six. The first group received saline-only injections, and the second received injections of 3-O-methyl sorbitollysine (50 mg/kg body weight) in saline solution. The same procedure was conducted on a cohort of twelve non-diabetic rats.

In another data set the test system is mouse mesangial cells. Briefly: Type IV collagen production in kidney cells in vitro. In kind it is cell-based. On the procedure:
Type IV collagen production was measured in mouse mesangial cells. Controls (grown with […]) produced 300 ng of Type IV collagen per 10,000 cells, whereas fructoselysine treated cells (5 or 10 mM fructoselysine with 10 mM glucose) produced 560 and 1100 ng/10,000 cells.

On the set-up of data set [4]: species or system human. Particulars: in vivo. The protocol:
Volunteers spent two days on a fructoselysine-free diet and then consumed 22.5 g of the food product prepared as described herein, thus effectively receiving a 2 gram dose of fructoselysine. Urine was collected at 2 hour intervals for 14 hours and a final collection was made at 24 hours. FL was measured by HPLC with a Waters 996 diode Array using a Waters C18 Free Amino Acid column at 46° C. and a gradient elution system of acetonitrile-methyl alcohol-water (45:15:40) into acetonitrile-sodium acetate-water (6:2:92) at 1 ml/min. Quantitation employed an internal standard of meglumine. 3DF was measured by HPLC after deionization of the sample. Analyses were performed on a Dionex DX-500 HPLC system employing a PA1 column (Dionex) and eluting with 32 mM sodium hydroxide at 1 ml/min. Quantitation was performed from standard curves obtained daily with synthetic 3DF. 3DG was measured by GC-MS after deionization of the sample. 3DG was derivatized with a 10-fold excess of diaminonaphthalene in PBS. Ethyl acetate extraction gave a salt free fraction which was converted to the trimethyl silyl ethers with Tri-Sil (Pierce). Analysis was performed on a Hewlett-Packard 5890 selected ion monitoring GC-MS system. […] Quantitation of 3DG employed selected ion monitoring using an internal standard of U-13C-3DG.

A further data set relates to 3-deoxyglucosone. In words: Reduction of urinary and plasma 3-deoxyglucosone in rats. In kind it is in vivo, rat. The conditions noted are these: for Plasma 3-deoxyglucosone reduced / average reduction of urinary 3-deoxyglucosone: rats, 10 μmols intraperitoneal; for Plasma 3-deoxyglucosone reduced: plasma at end of three hours; for average reduction of urinary 3-deoxyglucosone: urine three hours after vs before, normalized to creatinine. The protocol:
Urine was collected from six rats for three hours. A plasma sample was also obtained. The animals were then given 10 μmols of either sorbitollysine, mannitollysine, or galactitollysine by intraperitoneal injection. Urine was collected for another three hours, and a plasma sample obtained at the end of the three hours.
a. 3-deoxyglucosone was measured in the samples, as described in Example 5, below, and variable volumes were normalized to creatinine. The average reduction of urinary 3-deoxyglucosone was 50% by sorbitollysine, 35% by mannitollysine and 35% by galactitollysine. Plasma 3-deoxyglucosone was reduced 40% by sorbitollysine, 58% by mannitollysine and 50% by galactitollysine.
Three rats were treated as in b), immediately above, except meglumine (100 μmols) was injected intraperitoneally instead of the above-mentioned lysine derivatives. Three hours after the injection the average 3-deoxyglucosone concentrations in the urine were decreased 42%.
3DG was measured by GC-MS after deionization of the sample. 3DG was derivatized with a 10-fold excess of diaminonaphthalene in PBS. Ethyl acetate extraction gave a salt free fraction which was converted to the trimethyl silyl ethers with Tri-Sil (Pierce). Analysis was performed on a Hewlett-Packard 5890 selected ion monitoring GC-MS system. GC was performed on a fused silica capillary column (DB-5.25 mx. […]) using the following temperature program: injector port 250° C., initial column temperature 150° C. which is held for 1 minute, then increased to 290° C. at 16° C./minute and held for 15 minutes. Quantitation of 3DG employed selected ion monitoring using an internal standard of U-13C-3DG.

As to `O=CC(=O)C[C@H](O)[C@H](O)CO` [3DG, 3-deoxyglucosone], the “collagen crosslinking (migration on SDS-PAGE)” value in data set [1] (5 mM 3DG) was “caused the collagen to migrate as if it had a higher molecular weight”.
On to `CO[C@@H]([C@H](O)[C@H](O)CO)[C@@H](O)CNCCCC[C@H](N)C(=O)O` [DYN 12, 3-O-methylsorbitollysine], for which, in data set [2] (13500 nmols injected intraperitoneally, sacrificed after 3 hours, one line per rat, listed as 3OMeSL), the “nmols 3OMeSL in kidneys” value is 8155 nmols and 3880 nmols and 10071 nmols and 6582 nmols and 5373 nmols and 4833 nmols. Further, the “Nmols 3OMeSL in urine” value in data set [2] (13500 nmols injected intraperitoneally, urine collected 3 hours, one line per rat (Rat # 2084-2089), listed as 3OMeSL) is 4200 nmols and 1355 nmols and 2940 nmols and 1675 nmols and 1778 nmols and 2360 nmols. For the same molecule, the “presence in urine and plasma” value in data set [2] (3 hours after ip injection) is “The urine also contained 3-O-methyl sorbitollysine, but plasma did not”. In data set [2] (brain, heart, muscle, sciatic nerve, spleen, pancreas, liver, kidney examined 3 hours after ip injection), the “tissue extracts found to contain the compound” value is “The only tissue extract found to contain 3-O-methyl sorbitollysine was that of the kidney”. Further, the “% 3OMeSL recovered (percentage of the injected dose recovered from urine and kidney)” value in data set [2] (urine plus kidneys, one line per rat, listed as 3OMeSL) was 91.5% and 38.8% and 96.4% and 61.2% and 53.0% and 53.3%. In data set [2] (urine plus kidneys, one line per rat, listed as 3OMeSL, in nmol), the “total 3OMeSL recovered” value was 12355 and 5235 and 13011 and 8257 and 7151 and 7193. For the same molecule, in data set [3], the “amount of pressure needed to displace the skin” value is given as 3.2+/−1.2 kPA. Moreover, the “muscle strength measured while alert” value with diabetic rats was “stronger muscle strength”. In the data set with 3DG (Diabetic rats), the “% Reduction of plasma 3DG vs saline only” value was 53% and the “plasma 3DG level” value worked out at 0.44 ± 0.10 µM. Besides, in the data set on 3DG (Non-diabetic rats), the “% Reduction of plasma 3DG vs saline only” value is 43% and the “plasma 3DG level” value came out at 0.13 ± 0.02 µM.
With `N=C(N)NCCC[C@H](N)C(=O)O` [arginine, reference compound], the “inhibition of 3DG induced collagen crosslinking” value in data set [1] (5 mM 3DG plus 10 mM arginine) is “fewer high molecular bands”.
In the case of `NC(CCCCNCC(=O)C(O)C(O)C(O)CO)C(=O)O` (stereo not drawn) [fructoselysine, 1-deoxy-1-(ε-aminolysine)-fructose], the figures for the “Type IV collagen production” value with mouse mesangial cells (5 mM fructoselysine with 10 mM glucose) and in the data set with mouse mesangial cells (10 mM fructoselysine with 10 mM glucose) were 560 ng/10,000 cells and 1100 ng/10,000 cells, respectively. Besides, the “time of peak 3DF excretion in urine after the bolus” value in data set [4] is given as “about 4 hours”.
Take `N[C@@H](CCCCNC[C@H](O)[C@@H](O)[C@@H](O)[C@H](O)CO)C(=O)O` [galactitollysine]: in the data set with 3-deoxyglucosone, the “Plasma 3-deoxyglucosone reduced” value was 50% and the “average reduction of urinary 3-deoxyglucosone” value is listed as 35%.
For `N[C@@H](CCCCNC[C@@H](O)[C@@H](O)[C@H](O)[C@H](O)CO)C(=O)O` [mannitollysine], in that order: 58% and 35%.
`CNC[C@H](O)[C@@H](O)[C@H](O)[C@H](O)CO` [meglumine]: the “average 3-deoxyglucosone concentrations in the urine decreased” value in the data set with 3-deoxyglucosone (three rats, 100 μmols intraperitoneal, three hours after the injection) was 42%.
As to `N[C@@H](CCCCNC[C@H](O)[C@@H](O)[C@H](O)[C@H](O)CO)C(=O)O` [sorbitollysine], in the data set with 3-deoxyglucosone, the “Plasma 3-deoxyglucosone reduced” value was found to be 40% and the “average reduction of urinary 3-deoxyglucosone” value is listed as 50%.
